Data: the NIST ThermoML archive (doi:10.1016/j.jct.2017.06.001)
Numbers after ± are expanded uncertainties.

Assay: xn = mol fraction of the nth substance listed
Details: 100 kPa, Liquid; for speed of sound: Frequency=5 MHz, Pulse-echo method; for mass density: Vibrating tube method

OCCCCCO [1,5-pentanediol] + O
Details	mass density [kg/m3]	speed of sound [m/s]
313.15 K, x1 = 0.005	991.7 ± 0.52	–
313.15 K, x1 = 0.0101	991.52 ± 1	–
313.15 K, x1 = 0.0196	991.54 ± 1	–
313.15 K, x1 = 0.0251	991.82 ± 1	–
313.15 K, x1 = 0.0304	992.13 ± 1	–
313.15 K, x1 = 0.05	992.81 ± 1	–
313.15 K, x1 = 0.0769	993.24 ± 1	–
313.15 K, x1 = 0.1002	993.63 ± 1.1	–
313.15 K, x1 = 0.1124	–	1653.6 ± 1.2
313.15 K, x1 = 0.1158	–	1654.3 ± 1.2
313.15 K, x1 = 0.1193	–	1654.9 ± 1.2
313.15 K, x1 = 0.1244	–	1655.7 ± 1.2
313.15 K, x1 = 0.1287	–	1656.2 ± 1.2
313.15 K, x1 = 0.1321	–	1656.6 ± 1.2
313.15 K, x1 = 0.1361	–	1656.9 ± 1.2
313.15 K, x1 = 0.1413	–	1657.3 ± 1.2
313.15 K, x1 = 0.1438	993.61 ± 1.1	–
313.15 K, x1 = 0.1453	–	1657.5 ± 1.2
313.15 K, x1 = 0.1493	–	1657.7 ± 1.3
313.15 K, x1 = 0.1538	–	1657.8 ± 1.3
313.15 K, x1 = 0.1569	–	1657.8 ± 1.3
313.15 K, x1 = 0.1592	–	1657.9 ± 1.3
313.15 K, x1 = 0.1624	–	1657.9 ± 1.3
313.15 K, x1 = 0.1645	–	1657.9 ± 1.3
313.15 K, x1 = 0.1677	–	1657.8 ± 1.3
313.15 K, x1 = 0.1703	–	1657.8 ± 1.3
313.15 K, x1 = 0.174	–	1657.7 ± 1.3
313.15 K, x1 = 0.1785	–	1657.6 ± 1.3
313.15 K, x1 = 0.1796	–	1657.5 ± 1.3
313.15 K, x1 = 0.1845	993.02 ± 1.1	–
313.15 K, x1 = 0.1854	–	1657.3 ± 1.3
313.15 K, x1 = 0.1882	–	1657.2 ± 1.3
313.15 K, x1 = 0.1986	–	1656.6 ± 1.3
313.15 K, x1 = 0.2089	–	1656 ± 1.3
313.15 K, x1 = 0.2219	–	1655 ± 1.3
313.15 K, x1 = 0.2336	–	1654.1 ± 1.3
313.15 K, x1 = 0.2458	–	1653 ± 1.3
313.15 K, x1 = 0.2503	991.87 ± 1.2	–
313.15 K, x1 = 0.2586	–	1651.8 ± 1.3
313.15 K, x1 = 0.2742	–	1650.3 ± 1.4
313.15 K, x1 = 0.2871	–	1649 ± 1.4
313.15 K, x1 = 0.3	990.74 ± 1.2	–
313.15 K, x1 = 0.3037	–	1647.3 ± 1.4
313.15 K, x1 = 0.3173	–	1645.8 ± 1.4
313.15 K, x1 = 0.3343	989.99 ± 1.3	–
313.15 K, x1 = 0.3466	–	1642.6 ± 1.4
313.15 K, x1 = 0.366	–	1640.3 ± 1.4
313.15 K, x1 = 0.3864	–	1637.9 ± 1.5
313.15 K, x1 = 0.401	–	1636.1 ± 1.5
313.15 K, x1 = 0.4171	988.35 ± 1.4	–
313.15 K, x1 = 0.4198	–	1633.7 ± 1.5
313.15 K, x1 = 0.4339	–	1631.8 ± 1.5
313.15 K, x1 = 0.4516	–	1629.5 ± 1.5
313.15 K, x1 = 0.454	987.5 ± 1.4	–
313.15 K, x1 = 0.4639	–	1627.8 ± 1.6
313.15 K, x1 = 0.4723	–	1626.7 ± 1.6
313.15 K, x1 = 0.4915	–	1624 ± 1.6
313.15 K, x1 = 0.5003	986.6 ± 1.5	–
313.15 K, x1 = 0.5111	–	1621.3 ± 1.6
313.15 K, x1 = 0.5315	–	1618.4 ± 1.6
313.15 K, x1 = 0.5362	985.8 ± 1.5	–
313.15 K, x1 = 0.5529	–	1615.4 ± 1.7
313.15 K, x1 = 0.5804	–	1611.5 ± 1.7
313.15 K, x1 = 0.602	–	1608.5 ± 1.7
313.15 K, x1 = 0.6163	–	1606.5 ± 1.8
313.15 K, x1 = 0.6177	984.4 ± 1.7	–
313.15 K, x1 = 0.6349	–	1604 ± 1.8
313.15 K, x1 = 0.6478	983.9 ± 1.7	–
313.15 K, x1 = 0.6533	–	1601.5 ± 1.8
313.15 K, x1 = 0.6749	–	1598.6 ± 1.8
313.15 K, x1 = 0.6932	–	1596.3 ± 1.9
313.15 K, x1 = 0.7025	983 ± 1.8	–
313.15 K, x1 = 0.7095	–	1594.2 ± 1.9
313.15 K, x1 = 0.7237	–	1592.4 ± 1.9
313.15 K, x1 = 0.7448	–	1589.9 ± 1.9
313.15 K, x1 = 0.7504	982.3 ± 1.9	–
313.15 K, x1 = 0.7666	–	1587.3 ± 1.9
313.15 K, x1 = 0.7927	981.6 ± 2	–
313.15 K, x1 = 0.794	–	1584.1 ± 2
313.15 K, x1 = 0.8188	–	1581.3 ± 2
313.15 K, x1 = 0.8485	–	1578 ± 2.1
313.15 K, x1 = 0.8605	980.4 ± 2.1	–
313.15 K, x1 = 0.875	–	1575.1 ± 2.1
313.15 K, x1 = 0.9004	979.7 ± 2.2	–
313.15 K, x1 = 0.9027	–	1572.1 ± 2.2
313.15 K, x1 = 0.9251	–	1569.5 ± 2.2
313.15 K, x1 = 0.9471	–	1566.9 ± 2.2
313.15 K, x1 = 0.9496	978.8 ± 2.3	–
313.15 K, x1 = 0.9652	–	1564.7 ± 2.2
313.15 K, x1 = 0.9777	–	1563.1 ± 2.3
313.15 K, x1 = 0.9877	–	1561.8 ± 2.3
313.15 K, x1 = 0.9953	–	1560.8 ± 2.3
313.15 K, x1 = 1	977.8 ± 2.1	1560.2 ± 2.3
318.15 K, x1 = 0.0005	–	1538 ± 1.2
318.15 K, x1 = 0.0015	–	1540.6 ± 1.2
318.15 K, x1 = 0.0027	–	1543.4 ± 1.2
318.15 K, x1 = 0.0039	–	1546.4 ± 1.2
318.15 K, x1 = 0.0049	–	1548.8 ± 1.2
318.15 K, x1 = 0.0058	–	1550.9 ± 1.2
318.15 K, x1 = 0.0069	–	1553.4 ± 1.2
318.15 K, x1 = 0.008	–	1556 ± 1.2
318.15 K, x1 = 0.0092	–	1558.5 ± 1.2
318.15 K, x1 = 0.0106	–	1561.6 ± 1.2
318.15 K, x1 = 0.0116	–	1563.7 ± 1.2
318.15 K, x1 = 0.0129	–	1566.4 ± 1.2
318.15 K, x1 = 0.0141	–	1568.7 ± 1.2
318.15 K, x1 = 0.0154	–	1571.2 ± 1.2
318.15 K, x1 = 0.0168	–	1573.9 ± 1.2
318.15 K, x1 = 0.0184	–	1576.8 ± 1.2
318.15 K, x1 = 0.0196	–	1578.9 ± 1.2
318.15 K, x1 = 0.0215	–	1582.2 ± 1.2
318.15 K, x1 = 0.0231	–	1584.8 ± 1.2
318.15 K, x1 = 0.0246	–	1587.2 ± 1.2
318.15 K, x1 = 0.0263	–	1589.8 ± 1.2
318.15 K, x1 = 0.0283	–	1592.8 ± 1.2
318.15 K, x1 = 0.0298	–	1594.9 ± 1.2
318.15 K, x1 = 0.0316	–	1597.5 ± 1.2
318.15 K, x1 = 0.0337	–	1600.2 ± 1.2
318.15 K, x1 = 0.0357	–	1602.8 ± 1.2
318.15 K, x1 = 0.0378	–	1605.4 ± 1.2
318.15 K, x1 = 0.0403	–	1608.2 ± 1.2
318.15 K, x1 = 0.043	–	1611.2 ± 1.2
318.15 K, x1 = 0.0456	–	1613.9 ± 1.2
318.15 K, x1 = 0.0487	–	1616.8 ± 1.2
318.15 K, x1 = 0.0503	–	1618.2 ± 1.2
318.15 K, x1 = 0.0516	–	1619.4 ± 1.2
318.15 K, x1 = 0.0548	–	1622.1 ± 1.2
318.15 K, x1 = 0.0584	–	1624.9 ± 1.2
318.15 K, x1 = 0.0657	–	1629.8 ± 1.2
318.15 K, x1 = 0.0682	–	1631.3 ± 1.2
318.15 K, x1 = 0.072	–	1633.3 ± 1.2
318.15 K, x1 = 0.0763	–	1635.4 ± 1.2
318.15 K, x1 = 0.0796	–	1636.9 ± 1.2
318.15 K, x1 = 0.0848	–	1639 ± 1.2
318.15 K, x1 = 0.0893	–	1640.5 ± 1.2
318.15 K, x1 = 0.0963	–	1642.5 ± 1.2
318.15 K, x1 = 0.1022	–	1643.9 ± 1.2
318.15 K, x1 = 0.1063	–	1644.7 ± 1.2
318.15 K, x1 = 0.1107	–	1645.4 ± 1.2
318.15 K, x1 = 0.1147	–	1646 ± 1.2
318.15 K, x1 = 0.1186	–	1646.4 ± 1.2
318.15 K, x1 = 0.1227	–	1646.8 ± 1.2
318.15 K, x1 = 0.1267	–	1647.1 ± 1.2
318.15 K, x1 = 0.1324	–	1647.4 ± 1.2
318.15 K, x1 = 0.138	–	1647.6 ± 1.2
318.15 K, x1 = 0.1421	–	1647.7 ± 1.2
318.15 K, x1 = 0.1467	–	1647.7 ± 1.2
318.15 K, x1 = 0.151	–	1647.7 ± 1.3
318.15 K, x1 = 0.1559	–	1647.6 ± 1.3
318.15 K, x1 = 0.1604	–	1647.4 ± 1.3
318.15 K, x1 = 0.1642	–	1647.3 ± 1.3
318.15 K, x1 = 0.1668	–	1647.1 ± 1.3
318.15 K, x1 = 0.17	–	1647 ± 1.3
318.15 K, x1 = 0.1746	–	1646.7 ± 1.3
318.15 K, x1 = 0.1759	–	1646.6 ± 1.3
318.15 K, x1 = 0.1805	–	1646.3 ± 1.3
318.15 K, x1 = 0.1834	–	1646.1 ± 1.3
